# Active and inactive are the calls of the source.
# Legend:
# [1] = target: Induced myeloid leukemia cell differentiation protein Mcl-1 (Homo sapiens, UniProt Q07820); assay: MCL1-BIM BH3 interaction inhibitors, dose response, biochemical, fluorescence polarization, BIM-BH3 peptide, 1536-well (AID 2217)
# [2] = target: T1, Small ubiquitin-related modifier 1 (Homo sapiens, UniProt P63165); assay: inhibitors of SUMO1 peptide binding, dose response, biochemical, fluorescence polarization, uHTS hits (AID 624382); type: functional; conditions: read-out: IC50_Mean
# T1 sequence (P63165 whole entry): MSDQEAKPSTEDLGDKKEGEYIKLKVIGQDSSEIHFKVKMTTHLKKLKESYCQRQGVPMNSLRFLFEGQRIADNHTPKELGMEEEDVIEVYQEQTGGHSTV
# [3] = target: T2, Zinc finger protein mex-5 (Caenorhabditis elegans, UniProt Q9XUB2); assay: MEX-5/TCR-2 RNA interaction inhibitors, dose response, biochemical, C. elegans, fluorescence polarization (AID 1960)
# T2 sequence (Q9XUB2 whole entry): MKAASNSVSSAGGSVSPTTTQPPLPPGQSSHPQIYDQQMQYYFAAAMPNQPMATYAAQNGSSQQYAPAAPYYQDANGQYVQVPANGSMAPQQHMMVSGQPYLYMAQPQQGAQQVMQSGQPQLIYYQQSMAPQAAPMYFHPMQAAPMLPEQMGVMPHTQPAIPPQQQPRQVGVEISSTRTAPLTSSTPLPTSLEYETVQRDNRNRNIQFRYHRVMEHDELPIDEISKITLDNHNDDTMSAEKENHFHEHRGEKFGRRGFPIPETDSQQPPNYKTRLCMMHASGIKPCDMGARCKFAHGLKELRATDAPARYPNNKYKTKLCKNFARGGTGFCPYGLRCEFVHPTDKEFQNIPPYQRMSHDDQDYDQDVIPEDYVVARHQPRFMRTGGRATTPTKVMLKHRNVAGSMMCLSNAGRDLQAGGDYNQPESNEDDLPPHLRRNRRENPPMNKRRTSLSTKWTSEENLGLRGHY
# [4] = target: T1, Small ubiquitin-related modifier 1; assay: inhibitors of SUMO1 partner interactions, dose response, biochemical, FRET (AID 624383); type: functional; conditions: read-out: IC50_Mean
# [5] = target: T3, RNA-binding protein pos-1 (Caenorhabditis elegans, UniProt G5EF15); assay: inhibitors of POS-1/mex-3 RNA binding, dose response, biochemical, fluorescence polarization (AID 1964);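 further: purified POS-1 fused to maltose binding protein made in E. coli; potency of compounds blocking POS-1 binding to fluorescent RNA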
# T3 sequence (G5EF15 whole entry): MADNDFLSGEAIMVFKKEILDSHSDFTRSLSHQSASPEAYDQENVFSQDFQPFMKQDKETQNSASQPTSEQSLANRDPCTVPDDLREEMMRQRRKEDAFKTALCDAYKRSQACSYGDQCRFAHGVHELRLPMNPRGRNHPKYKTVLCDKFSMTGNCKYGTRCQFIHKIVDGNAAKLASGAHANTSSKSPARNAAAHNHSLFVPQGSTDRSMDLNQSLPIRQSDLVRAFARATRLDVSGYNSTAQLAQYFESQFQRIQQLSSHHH
# [6] = target: Bcl-2-like protein 1 (Homo sapiens, UniProt Q07817); assay: BCL-XL inhibitors, dose response, selectivity assay for MCL1 inhibitor project, biochemical, fluorescence polarization, 1536-well (AID 2218)
# Sequence of Bcl-2-like protein 1 (Q07817 whole entry): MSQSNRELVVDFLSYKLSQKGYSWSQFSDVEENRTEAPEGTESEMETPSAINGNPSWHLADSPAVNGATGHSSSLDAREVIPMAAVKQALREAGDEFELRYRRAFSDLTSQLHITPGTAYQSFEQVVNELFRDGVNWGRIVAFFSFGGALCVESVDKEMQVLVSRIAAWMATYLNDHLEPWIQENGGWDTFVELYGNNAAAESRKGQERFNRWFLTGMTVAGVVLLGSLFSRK
# [7] = system: HeLa; assay: HeLa cell cytotoxicity, dose response, cytotoxicity control, 24 h, cherry-picked samples (AID 504726); type: functional, cell-based; conditions: Homo sapiens;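 further: potency for cytotoxicity as loss of luminescence signal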
# [8] = target: ORF 73 (Human herpesvirus 8, UniProt O40947); assay: inhibitors of C-LANA binding to LBS DNA, dose response, biochemical, fluorescence polarization, cherry-picked samples (AID 504725); parameters: species or system Human gammaherpesvirus 8;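 further: fluorescence polarization of a labeled DNA duplex reporting LANA DNA binding; potency is for inhibitors that block LANA binding to the DNA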
# Sequence of ORF 73 (O40947 whole entry): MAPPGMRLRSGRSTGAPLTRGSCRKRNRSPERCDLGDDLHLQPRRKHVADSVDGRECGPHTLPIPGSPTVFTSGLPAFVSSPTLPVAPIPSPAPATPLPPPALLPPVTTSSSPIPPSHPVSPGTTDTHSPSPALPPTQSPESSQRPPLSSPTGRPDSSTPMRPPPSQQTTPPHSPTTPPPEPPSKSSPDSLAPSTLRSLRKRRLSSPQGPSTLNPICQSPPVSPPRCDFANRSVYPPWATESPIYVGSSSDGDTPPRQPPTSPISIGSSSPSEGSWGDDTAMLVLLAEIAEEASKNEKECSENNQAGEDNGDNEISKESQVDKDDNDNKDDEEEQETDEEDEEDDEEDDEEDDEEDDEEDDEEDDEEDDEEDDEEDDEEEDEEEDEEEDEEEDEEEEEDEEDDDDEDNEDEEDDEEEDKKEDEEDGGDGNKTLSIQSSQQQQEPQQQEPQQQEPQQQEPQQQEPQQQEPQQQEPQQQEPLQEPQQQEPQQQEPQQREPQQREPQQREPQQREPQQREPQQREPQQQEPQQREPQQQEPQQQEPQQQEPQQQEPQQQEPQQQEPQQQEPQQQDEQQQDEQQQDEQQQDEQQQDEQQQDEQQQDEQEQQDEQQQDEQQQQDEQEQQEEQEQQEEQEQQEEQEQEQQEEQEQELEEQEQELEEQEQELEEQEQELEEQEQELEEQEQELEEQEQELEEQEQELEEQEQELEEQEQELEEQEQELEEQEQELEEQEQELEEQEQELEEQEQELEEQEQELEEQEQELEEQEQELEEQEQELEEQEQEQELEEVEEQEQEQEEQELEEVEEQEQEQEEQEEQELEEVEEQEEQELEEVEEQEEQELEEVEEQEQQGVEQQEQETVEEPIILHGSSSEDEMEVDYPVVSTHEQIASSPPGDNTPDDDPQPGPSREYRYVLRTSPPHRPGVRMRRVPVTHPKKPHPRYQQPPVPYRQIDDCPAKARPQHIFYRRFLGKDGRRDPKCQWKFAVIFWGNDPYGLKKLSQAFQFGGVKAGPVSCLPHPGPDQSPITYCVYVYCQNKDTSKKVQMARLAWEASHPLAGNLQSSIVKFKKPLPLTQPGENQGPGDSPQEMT
# [9] = target: Beta-adrenergic receptor kinase 1 (Homo sapiens, UniProt P25098); assay: aptamer displacement from bead-bound GRK2 – biochemical, cherry pick 1, bead flow cytometry, dose response (AID 504500)
# Sequence of Beta-adrenergic receptor kinase 1 (P25098 whole entry): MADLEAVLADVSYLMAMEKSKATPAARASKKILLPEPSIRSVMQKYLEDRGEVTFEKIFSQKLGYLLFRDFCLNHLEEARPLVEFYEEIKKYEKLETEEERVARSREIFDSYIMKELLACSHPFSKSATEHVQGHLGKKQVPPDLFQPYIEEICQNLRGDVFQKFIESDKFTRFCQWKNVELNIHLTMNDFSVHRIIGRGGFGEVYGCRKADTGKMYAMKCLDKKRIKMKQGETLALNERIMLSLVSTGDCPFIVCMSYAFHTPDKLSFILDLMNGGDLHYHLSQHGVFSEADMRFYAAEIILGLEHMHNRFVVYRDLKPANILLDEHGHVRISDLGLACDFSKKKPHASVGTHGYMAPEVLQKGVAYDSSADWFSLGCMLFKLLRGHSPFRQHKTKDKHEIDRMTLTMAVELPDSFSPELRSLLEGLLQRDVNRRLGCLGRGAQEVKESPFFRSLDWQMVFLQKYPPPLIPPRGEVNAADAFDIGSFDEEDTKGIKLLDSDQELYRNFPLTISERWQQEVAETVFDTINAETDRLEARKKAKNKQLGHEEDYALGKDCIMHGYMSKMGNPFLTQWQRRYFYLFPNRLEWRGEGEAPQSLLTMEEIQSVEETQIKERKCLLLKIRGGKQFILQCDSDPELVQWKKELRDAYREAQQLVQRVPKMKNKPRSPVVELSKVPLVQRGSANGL
# [10] = target: DNA (cytosine-5)-methyltransferase 1 (Homo sapiens, UniProt P26358); assay: DNMT1 methyltransferase inhibitors, confirmation, biochemical, fluorescent molecular beacon (AID 602386); type: functional
# Sequence of DNA (cytosine-5)-methyltransferase 1 (P26358 whole entry): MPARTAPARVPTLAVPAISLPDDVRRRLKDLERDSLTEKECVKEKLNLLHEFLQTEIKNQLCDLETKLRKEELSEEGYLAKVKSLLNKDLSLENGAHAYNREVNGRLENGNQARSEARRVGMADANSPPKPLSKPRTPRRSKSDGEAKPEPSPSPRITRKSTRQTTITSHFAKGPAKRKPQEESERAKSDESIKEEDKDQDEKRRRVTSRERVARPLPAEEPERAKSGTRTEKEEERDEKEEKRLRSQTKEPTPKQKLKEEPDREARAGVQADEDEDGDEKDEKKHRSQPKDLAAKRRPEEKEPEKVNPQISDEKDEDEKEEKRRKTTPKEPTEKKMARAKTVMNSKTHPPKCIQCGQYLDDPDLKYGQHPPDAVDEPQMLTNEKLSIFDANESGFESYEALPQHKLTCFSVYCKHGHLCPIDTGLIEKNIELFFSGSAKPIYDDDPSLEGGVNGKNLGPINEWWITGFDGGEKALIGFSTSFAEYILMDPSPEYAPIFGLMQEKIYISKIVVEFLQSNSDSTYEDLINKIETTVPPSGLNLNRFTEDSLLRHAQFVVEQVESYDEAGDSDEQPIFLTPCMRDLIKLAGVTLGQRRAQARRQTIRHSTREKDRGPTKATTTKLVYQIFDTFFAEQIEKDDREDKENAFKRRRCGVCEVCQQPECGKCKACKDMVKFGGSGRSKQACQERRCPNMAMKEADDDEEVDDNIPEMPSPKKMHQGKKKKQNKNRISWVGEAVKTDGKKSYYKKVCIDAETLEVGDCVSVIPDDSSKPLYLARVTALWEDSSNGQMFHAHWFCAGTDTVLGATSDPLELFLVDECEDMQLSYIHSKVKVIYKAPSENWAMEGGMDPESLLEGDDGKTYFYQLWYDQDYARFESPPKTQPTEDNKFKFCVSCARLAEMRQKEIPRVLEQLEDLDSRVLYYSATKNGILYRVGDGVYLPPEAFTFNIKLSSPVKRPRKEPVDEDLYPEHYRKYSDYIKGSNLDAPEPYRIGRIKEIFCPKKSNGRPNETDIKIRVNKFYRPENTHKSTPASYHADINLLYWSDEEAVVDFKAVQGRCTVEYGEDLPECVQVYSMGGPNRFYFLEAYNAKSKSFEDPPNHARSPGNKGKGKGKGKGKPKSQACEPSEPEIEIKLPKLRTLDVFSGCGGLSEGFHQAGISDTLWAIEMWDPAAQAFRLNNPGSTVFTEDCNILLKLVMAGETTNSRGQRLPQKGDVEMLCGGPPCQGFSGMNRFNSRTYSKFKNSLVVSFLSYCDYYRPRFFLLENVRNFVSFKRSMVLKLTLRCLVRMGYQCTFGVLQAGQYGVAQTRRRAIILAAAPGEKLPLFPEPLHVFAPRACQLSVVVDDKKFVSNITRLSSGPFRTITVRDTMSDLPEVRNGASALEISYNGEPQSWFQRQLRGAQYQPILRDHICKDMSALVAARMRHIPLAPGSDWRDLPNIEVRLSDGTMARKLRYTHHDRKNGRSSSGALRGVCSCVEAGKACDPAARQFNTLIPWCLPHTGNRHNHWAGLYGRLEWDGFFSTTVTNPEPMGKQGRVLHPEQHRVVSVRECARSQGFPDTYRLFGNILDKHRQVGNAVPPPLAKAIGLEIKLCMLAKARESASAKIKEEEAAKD
# Sequence of Induced myeloid leukemia cell differentiation protein Mcl-1 (Q07820 whole entry): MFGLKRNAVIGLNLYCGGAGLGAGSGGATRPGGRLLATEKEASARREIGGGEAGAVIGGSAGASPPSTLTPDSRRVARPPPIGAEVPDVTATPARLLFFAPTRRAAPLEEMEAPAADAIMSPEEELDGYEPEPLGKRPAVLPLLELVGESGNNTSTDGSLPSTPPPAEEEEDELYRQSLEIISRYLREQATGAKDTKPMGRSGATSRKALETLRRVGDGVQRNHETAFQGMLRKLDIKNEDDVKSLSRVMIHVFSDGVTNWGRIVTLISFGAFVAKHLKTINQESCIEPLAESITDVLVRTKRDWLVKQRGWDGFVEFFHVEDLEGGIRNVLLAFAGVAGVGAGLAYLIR
compound,measurement,setting,value
O=C(O)c1ccc(-n2cccc2/C=C2/SC(=O)N(CC(=O)N3CCCC3)C2=O)cc1,IC50,[1],15.9 µM (not active)
same,IC50,[2],> 66.6 µM (inactive)
same,EC50,[3],78.2 µM (active)
same,IC50,[4],6.13 µM (active)
same,EC50,[5],89 µM (active)
same,IC50,[6],104 µM (not active)
same,AC50,[7],44.7 µM (active)
same,AC50,[8],30.3 µM (active)
same,EC50,[9],33 µM (inactive)
same,IC50,[10],3.5 µM (active)

# Reference: ChEMBL document CHEMBL1201862, “PubChem BioAssay data set” (2004)
